# From ChEMBL document CHEMBL1201862, “PubChem BioAssay data set” (2004)
# Active and inactive are the calls of the source.
# Tests used:
# [1] = target: Voltage-dependent T-type calcium channel subunit alpha-1H (Homo sapiens, UniProt O95180); type: functional;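 also: channel activity triggered by adding a high calcium stimulation buffer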
# [2] = target: T1, Microphthalmia-associated transcription factor (Homo sapiens, UniProt O75030); experiment: reducers of TRPM1 reporter luminescence, concentration series – cell-based, SK-MEL-5, cherry-picked, set 3, MITF inhibitor project, dose response (AID 493073); type: functional;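 also: SK-MEL-5 melanoma cells with luciferase driven by the MITF target TRPM1 promoter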
# T1 sequence (O75030 whole entry): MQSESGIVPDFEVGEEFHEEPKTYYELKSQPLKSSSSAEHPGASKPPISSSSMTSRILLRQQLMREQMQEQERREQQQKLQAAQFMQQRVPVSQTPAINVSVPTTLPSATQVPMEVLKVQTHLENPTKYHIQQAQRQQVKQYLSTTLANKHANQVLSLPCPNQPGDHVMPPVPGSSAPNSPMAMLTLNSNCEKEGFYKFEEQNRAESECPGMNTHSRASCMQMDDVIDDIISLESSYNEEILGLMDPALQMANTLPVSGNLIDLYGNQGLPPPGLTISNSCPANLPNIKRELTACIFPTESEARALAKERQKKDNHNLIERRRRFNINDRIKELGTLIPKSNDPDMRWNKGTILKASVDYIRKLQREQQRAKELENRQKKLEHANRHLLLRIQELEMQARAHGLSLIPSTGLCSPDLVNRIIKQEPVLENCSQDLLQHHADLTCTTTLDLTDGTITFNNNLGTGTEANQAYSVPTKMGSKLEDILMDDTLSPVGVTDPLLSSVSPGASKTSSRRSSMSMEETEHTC
# [3] = DRD fibroblast viability loss – cell-based, non-viral oncogenic, luminescence, dose response (AID 1934); type: functional; settings: Homo sapiens
# cells [4] = type: functional, cell-based
# BJ [5] = experiment: BJ-TERT fibroblast viability loss – cell-based, RAS-independent, luminescence, dose response (AID 1933); type: functional; settings: Homo sapiens
# [6] = luciferase reporter signal reduction – luminescence, H4-C neuroglioblastoma cells, dose response (AID 2458); type: functional, cell-based;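 also: H4 neuroglioblastoma cells stably carrying a luciferase reporter gene fusion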
# BJ [7] = experiment: cells; type: functional, cell-based; settings: Homo sapiens
# BJ [8] = experiment: BJ-TERT-LT-ST fibroblast viability loss – cell-based, RAS-independent, luminescence, dose response (AID 1935); type: functional; settings: Homo sapiens;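 also: BJ fibroblasts immortalized with TERT plus LT and ST oncogenes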
# [9] = alpha-synuclein stem-loop luciferase translation blockers – H4 neuroglioma cells, luminescence, confirmation (AID 1988); type: functional, cell-based
# [10] = HEK-293T viability loss after treatment – luminescence, T-cell screen hits, cytotoxicity control for TCR NF-kB inhibitor project, dose response (AID 489026); type: functional, cell-based;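 also: cells exposed to compound about 14 hours before the viability readout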
# [11] = alpha-synuclein stem-loop translation blockers – luminescence, H4 neuroglioblastoma cells, dose confirmation, confirmation (AID 2454); type: functional, cell-based;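 also: H4 neuroglioblastoma cells carrying an alpha-synuclein 5'UTR luciferase reporter; potency for inhibition of the luciferase signal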
# [12] = luciferase reporter signal suppression in cells – H4 neuroglioma cells, luminescence, dose response (AID 1990); type: functional, cell-based
# BJ [13] = experiment: growth inhibition of engineered Ras-driven BJ cells – cell-based, alamar blue fluorescence, cherrypicked samples, dose response (AID 2631); type: functional; settings: Homo sapiens;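 also: confirmatory dose-response assay in RAS-dependent BJ fibroblasts engineered with TERT, LT and ST, with cytotoxicity read by fluorescence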
# [14] = HepG2 cell cytotoxicity, dose response, cytotoxicity control for non-replicating M. tuberculosis project (AID 489018); type: functional; settings: Mycobacterium tuberculosis
# [15] = THP-1 cell cytotoxicity, dose response, cytotoxicity control for non-replicating M. tuberculosis project (AID 489025); type: functional
# cells [16] = type: functional
# [17] = Vero E6 cell cytotoxicity, dose response, cytotoxicity control for non-replicating M. tuberculosis project, secondary assay (AID 492998); type: functional, VeroE6; settings: Vero C1008
# [18] = microbe, parasite or virus in culture; type: functional; settings: Mycobacterium tuberculosis
# [19] = target: Cyclin-dependent kinase 5/CDK5 activator 1 (Homo sapiens, UniProt Q00535); experiment: blockade of human CDK5 activity – biochemical, cherry-picked samples, set 2, dose response (AID 504545)
# Cyclin-dependent kinase 5/CDK5 activator 1, sequence (Q00535 whole entry): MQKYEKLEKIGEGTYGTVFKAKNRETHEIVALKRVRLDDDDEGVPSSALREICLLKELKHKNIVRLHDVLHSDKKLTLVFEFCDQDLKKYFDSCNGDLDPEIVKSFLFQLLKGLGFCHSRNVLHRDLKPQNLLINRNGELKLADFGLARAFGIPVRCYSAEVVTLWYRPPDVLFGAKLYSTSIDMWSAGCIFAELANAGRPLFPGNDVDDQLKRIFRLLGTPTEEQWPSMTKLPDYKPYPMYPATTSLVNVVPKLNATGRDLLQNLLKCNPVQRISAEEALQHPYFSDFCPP
# Cyclin-dependent kinase 5/CDK5 activator 1, sequence (Q15078 whole entry, further chain): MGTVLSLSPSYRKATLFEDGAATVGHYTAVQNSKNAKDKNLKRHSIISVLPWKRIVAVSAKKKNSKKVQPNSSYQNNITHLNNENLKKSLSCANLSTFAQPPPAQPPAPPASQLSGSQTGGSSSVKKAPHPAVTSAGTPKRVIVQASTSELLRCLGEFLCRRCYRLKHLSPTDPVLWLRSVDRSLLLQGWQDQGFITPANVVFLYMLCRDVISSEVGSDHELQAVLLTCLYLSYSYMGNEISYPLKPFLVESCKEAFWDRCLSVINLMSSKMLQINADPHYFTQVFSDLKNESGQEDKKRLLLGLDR
# [20] = target: FAD-linked sulfhydryl oxidase ALR (Homo sapiens, UniProt P55789); experiment: ALR-catalysed DTT oxidation blockers – biochemical, H2O2 detection, luminescence, cherry-pick, dose response (AID 493248)
# FAD-linked sulfhydryl oxidase ALR, sequence (P55789 whole entry): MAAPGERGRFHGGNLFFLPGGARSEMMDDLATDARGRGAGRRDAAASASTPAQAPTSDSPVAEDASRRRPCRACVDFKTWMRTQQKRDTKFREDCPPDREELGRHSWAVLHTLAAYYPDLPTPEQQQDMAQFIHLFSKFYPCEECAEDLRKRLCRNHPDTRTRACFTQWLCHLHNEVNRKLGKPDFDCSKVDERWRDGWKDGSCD
# [21] = target: T2, Ubiquitin-conjugating enzyme E2 N (Homo sapiens, UniProt P61088); type: functional
# T2 sequence (P61088 whole entry): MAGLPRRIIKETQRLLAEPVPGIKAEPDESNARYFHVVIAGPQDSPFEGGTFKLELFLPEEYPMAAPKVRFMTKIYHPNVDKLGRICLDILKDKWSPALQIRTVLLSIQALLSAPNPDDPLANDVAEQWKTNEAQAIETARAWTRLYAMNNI
# [22] = target: T2, Ubiquitin-conjugating enzyme E2 N; type: functional; remark: listed apart in the source
# Bcl-2-related protein A1 = target: T3, Bcl-2-related protein A1 (Mus musculus, UniProt Q07440); type: functional;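 also: confirmatory dose–response counterscreen on Bfl-1, used to check hits from a UBC13 polyubiquitin inhibitor campaign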
# T3 sequence (Q07440 whole entry): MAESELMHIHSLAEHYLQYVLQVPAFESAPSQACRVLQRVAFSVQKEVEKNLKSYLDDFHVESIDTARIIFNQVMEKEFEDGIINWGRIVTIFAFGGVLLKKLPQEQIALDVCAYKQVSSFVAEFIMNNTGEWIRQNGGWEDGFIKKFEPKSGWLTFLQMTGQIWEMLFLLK
# [23] = A Cell Based Secondary Assay To Explore Cytotoxicity of Compounds that Sensitize Mycobacterium Tuberculosis to Beta-Lactam Antibiotics.; type: functional
# [24] = test system: Streptococcus sp. 'group A'; experiment: Streptococcus pyogenes SK(-)GAS viability under kanamycin – luminescence, BacTiterGlo, confirmation, counter-screen for streptokinase expression inhibitor project, dose response (AID 1900); type: functional, organism-based
# Streptokinase A = target: T4, Streptokinase A (Streptococcus pyogenes serotype M1, UniProt P10520); experiment: viability-normalized secreted streptokinase activity reduction – plasminogen activation absorbance, OD405, dose response (AID 1914); type: functional, Streptococcus pyogenes M1 GAS;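 also: secreted streptokinase activity via plasminogen activation per viability signal from cell pellet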
# T4 sequence (P10520 whole entry): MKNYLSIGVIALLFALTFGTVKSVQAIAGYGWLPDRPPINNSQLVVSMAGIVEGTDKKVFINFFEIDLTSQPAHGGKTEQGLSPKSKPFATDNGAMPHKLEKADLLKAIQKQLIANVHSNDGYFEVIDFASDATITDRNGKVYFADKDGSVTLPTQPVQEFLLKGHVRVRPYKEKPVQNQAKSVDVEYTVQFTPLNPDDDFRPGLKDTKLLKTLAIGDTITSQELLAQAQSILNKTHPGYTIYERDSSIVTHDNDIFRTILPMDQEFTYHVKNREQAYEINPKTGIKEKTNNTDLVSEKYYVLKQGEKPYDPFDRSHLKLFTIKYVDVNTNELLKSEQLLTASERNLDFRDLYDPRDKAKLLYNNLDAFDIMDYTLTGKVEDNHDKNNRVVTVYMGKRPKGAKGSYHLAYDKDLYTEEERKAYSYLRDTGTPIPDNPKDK
# Streptococcus = experiment: GAS UMAA2166 growth inhibition – luminescence, BacTiterGlo, counter-screen for streptokinase expression inhibitor project, dose response (AID 1915); type: functional, organism-based;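 also: potency for reduction of bacterial viability or growth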
# [25] = Luminescence Cell-Based Dose Retest to Confirm Inhibitors of Cancer Stem Cells. [Related pubchem assays (depositor defined):AID2717, AID2721]; type: functional; settings: Homo sapiens
# Voltage-dependent T-type calcium channel subunit alpha-1H, sequence (O95180 whole entry): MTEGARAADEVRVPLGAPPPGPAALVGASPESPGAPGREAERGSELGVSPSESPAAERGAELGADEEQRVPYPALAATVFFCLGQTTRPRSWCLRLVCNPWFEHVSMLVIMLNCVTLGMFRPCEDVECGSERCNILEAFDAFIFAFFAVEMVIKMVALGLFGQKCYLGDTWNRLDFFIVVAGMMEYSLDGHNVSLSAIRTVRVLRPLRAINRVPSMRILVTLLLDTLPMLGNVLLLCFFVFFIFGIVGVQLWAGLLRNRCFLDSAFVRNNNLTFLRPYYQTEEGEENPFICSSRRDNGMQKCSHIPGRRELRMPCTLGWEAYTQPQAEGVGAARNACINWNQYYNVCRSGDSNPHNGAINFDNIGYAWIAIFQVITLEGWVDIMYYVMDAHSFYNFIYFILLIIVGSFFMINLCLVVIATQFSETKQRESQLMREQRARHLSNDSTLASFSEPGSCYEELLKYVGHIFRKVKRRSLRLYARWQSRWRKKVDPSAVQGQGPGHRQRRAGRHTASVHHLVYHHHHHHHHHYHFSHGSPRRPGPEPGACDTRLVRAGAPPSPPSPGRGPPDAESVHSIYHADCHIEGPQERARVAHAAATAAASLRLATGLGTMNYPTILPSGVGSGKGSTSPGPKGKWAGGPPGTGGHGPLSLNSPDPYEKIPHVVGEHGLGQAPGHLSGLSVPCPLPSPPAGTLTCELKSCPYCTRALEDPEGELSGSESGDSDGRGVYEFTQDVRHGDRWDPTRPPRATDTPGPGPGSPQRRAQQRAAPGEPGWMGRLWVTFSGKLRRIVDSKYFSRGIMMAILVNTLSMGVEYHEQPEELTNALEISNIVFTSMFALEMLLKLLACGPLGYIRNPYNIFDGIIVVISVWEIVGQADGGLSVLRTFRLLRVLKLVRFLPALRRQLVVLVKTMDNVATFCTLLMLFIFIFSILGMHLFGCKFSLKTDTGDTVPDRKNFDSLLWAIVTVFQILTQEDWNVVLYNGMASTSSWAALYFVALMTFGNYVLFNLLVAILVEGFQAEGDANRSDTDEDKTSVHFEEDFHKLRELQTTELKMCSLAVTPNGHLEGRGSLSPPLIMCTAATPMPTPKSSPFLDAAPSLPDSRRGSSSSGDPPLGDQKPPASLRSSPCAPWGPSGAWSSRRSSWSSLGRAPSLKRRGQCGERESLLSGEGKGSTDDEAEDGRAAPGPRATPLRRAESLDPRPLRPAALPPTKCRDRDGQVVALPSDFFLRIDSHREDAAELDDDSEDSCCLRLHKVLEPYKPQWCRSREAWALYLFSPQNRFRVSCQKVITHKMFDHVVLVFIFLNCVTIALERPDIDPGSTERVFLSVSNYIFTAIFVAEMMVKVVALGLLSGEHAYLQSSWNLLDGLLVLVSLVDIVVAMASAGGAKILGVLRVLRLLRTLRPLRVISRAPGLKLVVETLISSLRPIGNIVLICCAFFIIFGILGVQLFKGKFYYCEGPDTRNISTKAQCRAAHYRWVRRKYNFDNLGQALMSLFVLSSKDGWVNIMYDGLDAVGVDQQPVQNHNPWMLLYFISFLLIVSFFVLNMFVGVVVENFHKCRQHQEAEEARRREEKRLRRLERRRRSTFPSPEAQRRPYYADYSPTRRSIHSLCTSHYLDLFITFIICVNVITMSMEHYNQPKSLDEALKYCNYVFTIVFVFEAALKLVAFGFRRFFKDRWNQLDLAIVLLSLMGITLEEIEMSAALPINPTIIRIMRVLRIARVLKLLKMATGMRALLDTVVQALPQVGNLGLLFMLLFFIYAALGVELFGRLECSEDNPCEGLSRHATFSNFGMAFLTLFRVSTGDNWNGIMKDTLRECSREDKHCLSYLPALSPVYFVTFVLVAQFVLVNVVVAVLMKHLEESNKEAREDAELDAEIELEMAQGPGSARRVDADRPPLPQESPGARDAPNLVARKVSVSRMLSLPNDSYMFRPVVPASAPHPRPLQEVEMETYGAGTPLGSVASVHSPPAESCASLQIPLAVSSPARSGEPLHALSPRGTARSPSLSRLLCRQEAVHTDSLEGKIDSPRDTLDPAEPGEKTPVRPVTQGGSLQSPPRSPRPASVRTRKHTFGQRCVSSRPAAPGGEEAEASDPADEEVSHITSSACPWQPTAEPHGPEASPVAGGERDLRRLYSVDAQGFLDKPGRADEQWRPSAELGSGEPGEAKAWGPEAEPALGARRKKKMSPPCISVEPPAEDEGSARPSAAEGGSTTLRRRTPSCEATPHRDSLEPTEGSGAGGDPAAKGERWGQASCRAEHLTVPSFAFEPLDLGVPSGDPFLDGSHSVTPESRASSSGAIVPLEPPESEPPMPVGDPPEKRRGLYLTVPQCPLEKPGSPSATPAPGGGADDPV
structure (smiles),measurement,setting,value
COc1cccc(-c2nc(CS(=O)(=O)CC(=O)N3CCc4ccccc4C3)c(C)o2)c1,EC50,[1],10.8 µM (active)
N#C/C(=C(/O)CCl)c1nc2ccccc2[nH]1,AC50,[2],4.6 µM (active)
CCOc1ccccc1C(=O)N1CCN(c2cccc(Cl)c2)CC1,EC50,[3],2.65 µM (active)
same,EC50,cells [4],0.331 µM (active)
same,EC50,BJ [5],2.66 µM (inconclusive)
same,EC50,[6],0.229 µM (active)
same,EC50,BJ [7],2.85 µM (inconclusive)
same,EC50,BJ [8],1.44 µM (active)
same,EC50,[9],< 0.1 µM (active)
same,IC50,[10],> 80 µM (inactive)
same,EC50,[11],0.31 µM (active)
same,EC50,[12],< 0.1 µM (active)
same,EC50,BJ [13],< 0.104 µM (active)
CC(C)(C)OC(=O)NNc1c2ccccc2nc2ccccc12,CC50,[14],15.1 µM (active)
same,CC50,[15],> 40 µM (active)
same,IC50,cells [16],22.2 µM (active)
same,CC50,[17],> 20 µM (active)
same,CC50,[18],> 40 µM (active)
Cc1cc(-c2nsc(=O)o2)c(S(C)(=O)=O)s1,AC50,[19],29.3 µM (active)
same,AC50,[20],3.86 µM (active)
Cn1cccc1Cc1nnc(SCC(=O)Nc2ccc(Cl)cc2)n1-c1ccc(F)cc1,EC50,[1],1.32 µM (active)
O=C(NCCN1CCN(c2ccccc2)CC1)c1ccc2c(c1)[nH]c(=S)n1c3ccccc3nc21,IC50,[21],> 20 µM (inactive)
same,IC50,[22],0.829 µM (active)
same,IC50,Bcl-2-related protein A1,> 20 µM (inactive)
COc1cc2c(C(=O)N3CCN(c4ccccc4C)CC3)c(C)oc2cc1Br,CC50,[23],> 40 µM (active)
same,EC50,[24],4.4 µM (active)
same,EC50,Streptokinase A,79.8 µM (active)
same,EC50,Streptococcus,36 µM (active)
COc1cc(OC)cc(-c2cc3ccc(OC)cc3cn2)c1,CC50,[23],21.8 µM (active)
same,AC50,[25],3.32 µM (active)
